In patent US11105747B2, “Spectroscopic methods to detect and characterize microorganisms” (Spectral Platforms, Inc., priority 2017, dated 2021):
Converted amounts (≈) assume the structure as drawn.

Tested on: unknown pathogen
Experiment: Antimicrobial susceptibility (MIC/MBC) from Raman slope and time to cloudiness versus antimicrobial concentration
Type: cell-based
Experimental: To measure the minimum inhibitory concentration, or to otherwise characterize the antimicrobial susceptibility of any unknown pathogen to a candidate antimicrobial: • (a) Incubate the unknown pathogen for about 3 hours in a rich media. This time period should suffice to increase the concentration of the causative pathogen by about >100×. […] Incubate this mixture for another 20 minutes, which allows for sufficient time for the 10 CFUs to interact with the candidate antimicrobial. • (d) Add the 7 mixtures to the test vials, and test. The number of free radicals present in the mixed sample is a function of the concentration of the antimicrobial, and so the final slope can be plotted against antimicrobial concentration to develop estimates for the MIC. This is illustrated in FIGS. 32A and 32B.
FIG. 32A depicts the measured slope as a function of antimicrobial agent (vancomycin) concentration. FIG. 32B depicts the time taken for the tested samples to become cloudy. Above 2 μg/m L, the samples remain clear for very long incubation periods (>96 hours). Thus, the Minimum Bactericidal Concentration MBC is about 2 μg/mL. Above 0.25 mg/mL, the time to cloudiness increases slightly. […] As illustrated in FIGS. 32A and 32B, the MIC corresponds to the concentration at which the signal decreases slightly. Further, the MBC (Minimum Bactericidal Concentration) corresponds to the concentration at which the signal increases again.

CN[C@H](CC(C)C)C(=O)N[C@H]1C(=O)N[C@@H](CC(N)=O)C(=O)N[C@H]2C(=O)N[C@H]3C(=O)N[C@H](C(=O)N[C@H](C(=O)O)c4cc(O)cc(O)c4-c4cc3ccc4O)[C@H](O)c3ccc(c(Cl)c3)Oc3cc2cc(c3O[C@@H]2O[C@H](CO)[C@@H](O)[C@H](O)[C@H]2O[C@H]2C[C@](C)(N)[C@H](O)[C@H](C)O2)Oc2ccc(cc2Cl)[C@H]1O [vancomycin]
time taken for the tested samples to become cloudy (samples remain clear) (above 2 μg/mL vancomycin): > 96 h | MBC (concentration above which samples remain clear, signal increases again, read-out: Minimum Bactericidal Concentration MBC): ~2 µg/mL (≈ 1.38 µM) | MIC (read-out: MIC (minimum inhibitory concentration)): ~250 µg/mL (≈ 173 µM)
